Holding throughout (assay type): functional, cell-based
The test system of one experiment is A549. The experiment can be described thus: Cytotoxicity evaluated against A549 tumor cell lines; significant activity. The conditions noted are these: Homo sapiens.
The subject of the next experiment is B16. The experiment can be described thus: Cytotoxicity was evaluated against B16 tumor cell lines; Significant activity. The conditions noted are these: Mus musculus.
For the next experiment, the system named is CCRF-CEM. The experiment can be described thus: Cytotoxicity evaluated against CEM tumor cell lines; Significant activity. Conditions: Homo sapiens.
The test system of the next experiment is NCI-H596. The experiment can be described thus: Cytotoxicity evaluated against H596 tumor cell lines; Significant activity. Conditions: Homo sapiens.
In another experiment the test system is NCI-H292. The experiment can be described thus: Cytotoxicity evaluated against H292 tumor cell lines; Significant activity. The conditions noted are these: Homo sapiens.
Another experiment relates to HL-60. The experiment can be described thus: Cytotoxicity evaluated against HL-60 tumor cell lines; Significant activity. Conditions: Homo sapiens.
Another experiment concerns Jurkat. The experiment can be described thus: In vitro test for antitumor activity against human Jurkat cell line using a formazan dye (MTT) conversion assay.
A further experiment has as its system K562. The experiment can be described thus: Cytotoxicity evaluated against K562 tumor cell lines; Significant activity. Conditions: Homo sapiens.
For the next experiment, the system named is L1210. The experiment can be described thus: Cytotoxicity evaluated against L1210 tumor cell lines; Significant activity. The conditions noted are these: Mus musculus.
For a further experiment, the system named is MCF7. The experiment can be described thus: Cytotoxicity evaluated against MCF-7 tumor cell lines; Significant activity. The conditions noted are these: Homo sapiens.
The subject of another experiment is MOLT-4. The experiment can be described thus: Cytotoxicity was evaluated against Molt-4 tumor cell lines. The conditions noted are these: Homo sapiens.
The next experiment relates to NIH3T3. The experiment can be described thus: Cytotoxicity evaluated against NIH3T3 tumor cell lines; Significant activity. Conditions: Mus musculus.
In the next experiment the test system is WI-38. The experiment can be described thus: Cytotoxicity evaluated against WI38 tumor cell lines; Significant activity. Conditions: Homo sapiens.
Another experiment relates to WIL2. The experiment can be described thus: Cytotoxicity evaluated against WIL2 tumor cell lines; Significant activity. Conditions: Homo sapiens.

Usually IC50 stands for the midpoint of a concentration-inhibition curve. Consider `COc1cc2c(cc1OC)C(=O)/C(=C/c1cccc(C)c1)CC2`, for which the Cytotoxicity result with A549, in the experiment with B16, in the experiment on CCRF-CEM, in the experiment with NCI-H596, in the experiment with NCI-H292 and in the experiment on HL-60 was “Significant activity” throughout. The Cytotoxicity entry in the experiment with K562, in the experiment with L1210, in the experiment on MCF7, in the experiment with MOLT-4, with NIH3T3 and with WI-38 was “Significant activity” each time. In addition, the Cytotoxicity result in the experiment on WIL2 was “Significant activity”. Besides, the IC50 in the experiment with Jurkat was 17 µM.
`COc1cc(/C=C2\CCc3cc(OC)c(OC)cc3C2=O)cc(OC)c1`: the Cytotoxicity entry in the experiment with A549, in the experiment with B16, with CCRF-CEM, in the experiment with NCI-H596, in the experiment with NCI-H292 and in the experiment on HL-60 was “Significant activity” each time. In addition, the Cytotoxicity entry with K562, in the experiment on L1210, in the experiment on MCF7, with MOLT-4, in the experiment on NIH3T3 and in the experiment with WI-38 was “Significant activity” throughout. In the experiment on WIL2, the Cytotoxicity entry is “Significant activity”. In the experiment on Jurkat, this compound showed an IC50 of 5 µM.
As for `COc1cc2c(cc1OC)C(=O)/C(=C/c1cccc([N+](=O)[O-])c1)CC2`, the Cytotoxicity result in the experiment on A549, with B16, with CCRF-CEM, in the experiment with NCI-H596, with NCI-H292 and in the experiment with HL-60 was “Significant activity” in each case. Moreover, the Cytotoxicity entry in the experiment on K562, in the experiment on L1210, with MCF7, in the experiment on MOLT-4, in the experiment with NIH3T3 and in the experiment on WI-38 was “Significant activity” in each case. Also, the Cytotoxicity entry with WIL2 is “Significant activity”. Besides, it took 9 µM to reach half-maximal inhibition in the experiment on Jurkat (IC50).
With `COc1cc2c(cc1OC)C(=O)/C(=C/c1cccc(Cl)c1)CC2`, the Cytotoxicity result in the experiment on A549, with B16, in the experiment with CCRF-CEM, in the experiment with NCI-H596, with NCI-H292 and in the experiment with HL-60 was “Significant activity” throughout. The Cytotoxicity entry in the experiment with K562, with L1210, in the experiment on MCF7, in the experiment with MOLT-4, with NIH3T3 and in the experiment on WI-38 was “Significant activity” in each case. The Cytotoxicity entry in the experiment with WIL2 is “Significant activity”. Further, it took 9 µM to reach half-maximal inhibition with Jurkat (IC50).
As for `COc1cc2c(cc1OC)C(=O)/C(=C/c1cc(F)cc(F)c1)C2`, the Cytotoxicity entry in the experiment with A549, in the experiment with B16, in the experiment with CCRF-CEM, in the experiment with NCI-H596, in the experiment with NCI-H292 and in the experiment on HL-60 was “Significant activity” throughout. Further, the Cytotoxicity entry with K562, in the experiment with L1210, in the experiment with MCF7, in the experiment on MOLT-4, in the experiment on NIH3T3 and with WI-38 was “Significant activity” in each case. For the same compound, the Cytotoxicity entry in the experiment with WIL2 is “Significant activity”. It took 19 µM to reach half-maximal inhibition in the experiment with Jurkat (IC50).
`COc1cc2c(cc1OC)C(=O)/C(=C/c1cccc(C)c1)C2`: the Cytotoxicity result with A549, in the experiment with B16, in the experiment with CCRF-CEM, in the experiment on NCI-H596, in the experiment with NCI-H292 and with HL-60 was “Significant activity” throughout. Further, the Cytotoxicity entry in the experiment with K562, in the experiment on L1210, in the experiment with MCF7, in the experiment on MOLT-4, in the experiment with NIH3T3 and with WI-38 was “Significant activity” each time. In the experiment with WIL2, the Cytotoxicity result is “Significant activity”. The compound also returned an IC50 in the experiment with Jurkat of 1.8 µM.
On to `COc1ccc(OC)c(/C=C2\CCc3cc(OC)c(OC)cc3C2=O)c1`, for which the Cytotoxicity result in the experiment with A549, with B16, in the experiment with CCRF-CEM, in the experiment with NCI-H596, in the experiment on NCI-H292 and in the experiment on HL-60 was “Significant activity” throughout. Further, the Cytotoxicity result in the experiment on K562, in the experiment on L1210, in the experiment with MCF7, in the experiment on MOLT-4, with NIH3T3 and in the experiment on WI-38 was “Significant activity” each time. Besides, the Cytotoxicity result with WIL2 is “Significant activity”. For the same compound, the IC50 with Jurkat was found to be 11 µM.
Turning to `COc1cc2c(cc1OC)C(=O)/C(=C/c1cccc(Cl)c1)C2`, the Cytotoxicity result in the experiment on A549, in the experiment on B16, with CCRF-CEM, in the experiment with NCI-H596, in the experiment with NCI-H292 and in the experiment on HL-60 was “Significant activity” throughout. For the same compound, the Cytotoxicity result in the experiment on K562, in the experiment with L1210, in the experiment with MCF7, in the experiment with MOLT-4, with NIH3T3 and in the experiment with WI-38 was “Significant activity” throughout. Moreover, the Cytotoxicity entry with WIL2 is “Significant activity”. Besides, the 50% inhibitory concentration (IC50) with Jurkat was 8 µM.
On to `COc1cc2c(cc1OC)C(=O)/C(=C/c1cc(C)c(N)c(C)c1)C2`, for which the Cytotoxicity result in the experiment on A549, in the experiment with B16, in the experiment on CCRF-CEM, in the experiment on NCI-H596, in the experiment with NCI-H292 and in the experiment with HL-60 was “Significant activity” throughout. In addition, the Cytotoxicity entry in the experiment with K562, with L1210, in the experiment with MCF7, with MOLT-4, with NIH3T3 and with WI-38 was “Significant activity” in each case. Further, the Cytotoxicity entry in the experiment with WIL2 is “Significant activity”. In the experiment on Jurkat, this compound had an IC50 of 0.055 µM.
With `COc1cc2c(cc1OC)C(=O)/C(=C/c1cc(C)ccc1C)CC2`, the Cytotoxicity entry in the experiment on A549, with B16, with CCRF-CEM, with NCI-H596, with NCI-H292 and with HL-60 was “Significant activity” in each case. Also, the Cytotoxicity result in the experiment on K562, in the experiment on L1210, with MCF7, in the experiment with MOLT-4, with NIH3T3 and in the experiment on WI-38 was “Significant activity” each time. The Cytotoxicity entry in the experiment with WIL2 was “Significant activity”. In addition, half-maximal inhibition with Jurkat (IC50) required 6 µM.
Take `COc1cc2c(cc1O)C/C(=C\c1cc(C)c(O)c(C)c1)C2=O`: the Cytotoxicity result in the experiment with A549, in the experiment on B16, in the experiment with CCRF-CEM, in the experiment on NCI-H596, in the experiment with NCI-H292 and in the experiment with HL-60 was “Significant activity” in each case. Also, the Cytotoxicity entry in the experiment with K562, in the experiment on L1210, in the experiment on MCF7, in the experiment on MOLT-4, in the experiment on NIH3T3 and with WI-38 was “Significant activity” each time. Further, in the experiment with WIL2, the Cytotoxicity result was “Significant activity”. Moreover, inhibition in the experiment with Jurkat was half-maximal at 0.53 µM (IC50).

Source of the values: ChEMBL document CHEMBL1133412, “Rational design, synthesis and structure-activity relationships of antitumor (E)-2-benzylidene-1-tetralones and (E)-2-benzylidene-1-indanones” (Bioorg Med Chem Lett, 2000).
